Data set [1] is described as follows: Peptide stability in rat plasma. Type of data set: in vitro ADME. The settings on record: 100 μg/mL, 37° C.; FIG. 12, 13. The method, then: (§1) The stability of peptides was also tested in rat, mouse and human plasma. Briefly, a certain amount of peptides and eucatropine powder (positive control) was accurately weighed. Test compounds were dissolved in 50% methanol-water solution and diluted to 20 mg/mL, and eucatropine was dissolved in dimethylsulfoxide (DMSO) and diluted to 10 mM, as a stock solution. Eucatropine stock solution was diluted to 0.2 mM with DMSO as a working solution. A stop reagent was prepared containing 200 ng/mL midazolam and tolbutamide in acetonitrile. A volume of 300 μL of stop solution was added to each well of a 96-well deep-well plate placed on ice beforehand.
(§2) For the stability studies, peptides and eucatropine were spiked into plasma respectively, mixed well, and then 100 μL of each mixture solution was transferred into the pre-cooled stop reagent as 0 time point sample. The remaining mixtures were incubated in a 37° C. water bath with shaking at 100 rpm (n=2). The final incubation concentration was 1 μM for eucatropine and 100 μg/mL for all test compounds.
(§3) At desired time points, 100 μL of incubation mixture was transferred to the stop reagent to precipitate proteins. Samples were vortexed and centrifuged at RCF 5000×g for 10 minutes, and supernatant was transferred to a test plate. The samples were analyzed by LC-MS/MS.
(§4) Slope was calculated by plotting the natural logarithm of the percentage of remaining amount of test compounds and time, and T1/2 was calculated in accordance with the following formula.
For stability in rat plasma, the incubation time was 0, 15, 30, 60 and 120 min for Peptide 1 and eucatropine, and 0, 15, 30, 60, 120, and 240 min for Peptide 12, Peptide 16, Peptide 29 and Peptide 31.
In another stability study in rat plasma, the incubation time was 0, 30, 60 120 and 240 min for Peptide 2, Peptide 52, Peptide 64 and eucatropine.

A short description of data set [2]: Peptide stability in human plasma. The settings on record: 100 μg/mL, 37° C.; FIG. 4, 15. It counts as in vitro ADME. The method, then: as §1, with “in” for “in rat,”
(§5) For the stability studies, peptides and eucatropine were spiked into plasma respectively, mixed well, and then 100 μL of each mixture solution was transferred into the pre-cooled stop reagent as 0 time point sample. The remaining mixtures were incubated in a 37° C. water bath with shaking at 100 rpm (n=2). The final incubation concentration was […] for eucatropine and 100 μg/mL for all test compounds.
as §3, §4
For stability in human plasma, the incubation time was 0, 30, 60 and 120 min for Peptide 1, Peptide 12, Peptide 16 and eucatropine.
The stability of peptides was also tested in rat, mouse and human plasma. Briefly, a certain amount of peptides and eucatropine powder (positive control) was accurately weighed. Test compounds were dissolved in 50% methanol-water solution and diluted to 20 mg/mL, and eucatropine was dissolved in dimethylsulfoxide (DMSO) and diluted to 10 mM, as a stock solution. Eucatropine stock solution was diluted to 0.2 mM with DMSO as a working solution. […]

Data set [3] can be described thus: Pharmacokinetics in SD rats after single subcutaneous dose (Example X). Type of data set: in vivo, rat. The following applies: sc, 25 mg/kg. The method, then: After 7 days acclimation, a total of 15 male Sprague-Dawley (SD) rats (body weight: 230 to 270 g) in good health from Sino-British SIPPR/BK Lab Animal Ltd, Shanghai, were used in the study. All peptides, Peptide 1, Peptide 12, Peptide 16, Peptide 29 or Peptide 31, were dissolved in sterile normal saline respectively to yield the desired final concentrations and were administered via single subcutaneous (sc) dose.
Three animals in each group were used for blood collection at the time point of 5 min, 15 min, 30 min, 1 h, 2 h, 4 h, 6 h, 8 h and 24 h post-dose. Blood samples (approximately 400 μL) were collected and placed into tubes containing EDTA-K2 (dipotassium ethylene diamine tetraacetic acid) and centrifuged at 8000 rpm for 6 minutes at 4° C. to separate plasma from the samples. The resulting plasma was stored frozen at −80° C. until being analyzed.
Plasma concentrations of peptides were determined using tandem mass spectrometry (LC-MS/MS) analysis. A non-compartmental module of WinNonlin® Professional 5.2 (Pharsight; St. Louis Mo.) was used to calculate PK parameters. AUC(0-t) represents area under the curve from the time of dosing to the time of the last observation, the AUC(0-∞) represents area under the curve from the time of dosing to infinity, and the Cmax represents maximum concentration detected.

Data set [4] is classed as physicochemical. The settings on record: pH 7.4. The method, then: Peptide stability in buffers was tested for INGAP-PP and selected analogs. 10 mg/mL of Peptide 1, Peptide 12, Peptide 16, Peptide 29 or Peptide 31 was dissolved in isotonic buffers with pH ranging from 4.0 to 8.0. […] Peptide 12 and Peptide 29 were stable in an isotonic phosphate buffer (pH 7.4) for more than 90 days at 4° C. (there was no sign of degradation at 90 days sample check point), and 60 days at 25° C.

A short description of data set [5]: Peptide stability in mouse plasma. Type of data set: in vitro ADME. The settings on record: 100 μg/mL, 37° C.; FIG. 3, 5, 14. As for the experimental part:
as §1, with “in” for “in rat,”
as §5, §3, §4
For stability in mouse plasma, the incubation time was 0, 5, 15, 30 and 60 min for Peptide 1 and eucatropine; 0, 15, 30, 60, 120, 240 and 480 min for Peptide 12, Peptide 16 and Peptide 29.
In another stability study in mouse plasma, the incubation time was 0, 30, 60 and 120 min for Peptide 2 and eucatropine; 0, 30, 60, 120, 240 and 960 min for Peptide 52 and Peptide 54.
as §1, §2
For stability in mouse plasma, the incubation time was 0, 15, 30, 60 and 120 min for Peptide 1 and eucatropine; 0, 15, 30, 60, 120, and 240 min for Peptide 31.

Data set [6] is described as follows: Pharmacokinetics in rat, intravenous bolus. Type of data set: in vivo. The settings on record: male, Sprague-Dawley, rat, in vivo, iv, 25 mg/kg. The method, then:
(§6) After 7 days acclimation, male Sprague-Dawley (SD) rats weighing 210-250 g, or male C57BL/6 mice, weighing 19-24 g, in good health were used in the study. Peptide 1, Peptide 12 and Peptide 16 were dissolved in sterile normal saline and then they were injected via subcutaneous (sc) bolus or intravenous (iv) bolus at the dose level of 25 mg/kg. Three animals in each group were used for blood collection at the time point of 5 min, 15 min, 30 min, 1 h, 2 h, 4 h, 6 h, 8 h and 24 h post-dose. Blood samples (approximately 400 μL) were collected and placed into tubes containing EDTA-K2 and centrifuged at 8000 rpm for 6 minutes at 4° C. to separate plasma from the samples. The resulting plasma was stored frozen at −80° C. until being analyzed. Plasma concentrations of peptides were determined using tandem mass spectrometry (LC-MS/MS) analysis. A non-compartmental module of WinNonlin® Professional 5.2 (Pharsight; St. Louis Mo.), was used to calculate PK parameters. The abbreviation AUC(0-t) represents area under the curve from the time of dosing to the time of the last observation, the AUC(0-∞) represents area under the curve from the time of dosing to infinity, and the Cmax represents maximum concentration detected.

A short description of data set [7]: Pharmacokinetics in rat, subcutaneous bolus (Example VII). Type of data set: in vivo. The settings on record: male, Sprague-Dawley, rat, in vivo, sc, 25 mg/kg. As for the experimental part:
as §6

The nature of data set [8]: Pharmacokinetics in mouse, subcutaneous bolus. The settings on record: male, C57BL/6, mouse, in vivo, sc, 25 mg/kg. It counts as in vivo. The method, then: as §6
A short description of data set [9]: Peptide concentration in plasma and pancreas 30 min post dose. Type of data set: in vivo, rat. The settings on record: male, Sprague-Dawley, rat, in vivo, sc, 25 mg/kg, Peptide concentration. As for the experimental part:
To further characterize the pharmacokinetic (PK) properties of peptides, peptide concentration in pancreas—the target organ, was determined 30 min post dose. Briefly, INGAP-PP (Peptide 1), Peptide 12, or Peptide 31 was dissolved in sterile normal saline and then was administered via subcutaneous (sc) bolus at the dose level of 25 mg/kg to male Sprague-Dawley (SD) rats. Five animals in each group were used for blood and pancreas collection at the time point of 30 min post-dose. Blood samples (approximately 400 μL) were collected and placed into tubes containing EDTA-K2 and centrifuged at 8000 rpm for 6 minutes at 4° C. to separate plasma from the samples. After blood extraction and animal sacrifice, the pancreas was removed immediately from each animal, cleared of fat and lymph nodes, weighed, and placed into 5 fold volume of ice cold sterile normal saline with protease inhibitor cocktail (Merck Millipore, catalogue #539137) to homogenize with a homogenizer.
The peptide concentration of the plasma and pancreatic homogenate was determined immediately using tandem mass spectrometry (LC-MS/MS) analysis and the results are presented in Table 8.

The subject of the next data set is normal C57BL/6J mice. Nature of the data set: Induction of extra islet insulin positive β cell clusters (EIC) in normal C57BL/6J mice. The settings on record: analog 5 mg/kg vs INGAP-PP 50 mg/kg, 10 days. Type of data set: in vivo, mouse. The method, then:
After a 1-week acclimation, female C57BL/6J mice were randomly divided into 6 groups (n=5 per group). The control group received 10 mL/kg sterile normal saline via subcutaneous injection for 10 consecutive days. The other five groups received INGAP-PP (Peptide 1) or INGAP-PP analogs Peptide 12, Peptide 16, Peptide 29 or Peptide 31 at a dose of 50 mg/kg or 5 mg/kg per day, respectively, for the same period. On day 11, the pancreas was removed from each animal, cleared of fat and lymph nodes, weighed, and fixed in 10% neutral buffered formalin (NBF) for no longer than 24 hours before processing for morphometric analysis.
Immunohistochemistry analysis was used to assess the islet neogenic activities of peptides by measuring the number and area of extra islet insulin positive β cell clusters (EIC) of pancreatic tissues harvested from each individual group post 10 day treatment. EIC is indicative of islet neogenesis, as previously described by Lipsett and Finegood (Diabetes 51:1834-1841 (2002)).

For another data set, the system named is pancreatic islets. Nature of the data set: Glucose-stimulated insulin secretion (GSIS) of isolated islets. It counts as cell-based, rat. The following applies: 12.0 mM glucose; 10 μg/mL peptide or 100 nM GLP-1; 60 min; FIG. 8. As for the experimental part:
The pancreases were procured from male adult Sprague-Dawley (SD) rats. After 7 days acclimation, the animals were sacrificed by cervical dislocation and the entire pancreas was removed and digested with collagenase to isolate islets. After digestion, islets were maintained at 37° C. in RPMI 1640 (Carlsbad Calif., USA) pH 7.4, containing 10% (v/v) fetal calf serum, 1% penicillin/streptomycin, and 10 mM glucose in a humid atmosphere (5% CO2/95% O2), without the addition of any compound (control), or with the addition of 100 nM glucagon like peptide-1 (GLP-1); or 10 μg/mL Peptide 1, Peptide 12, or Peptide 16, as summarized in Table 4 below. Cultured islets were rinsed in Krebs-Ringer bicarbonate buffer (KRB), pH 7.4, previously gassed with a mixture of CO2/O2 (5/95%), and pre-incubated in 1.0 ml of KRB containing 0.5% (w/v) BSA and 1.5 mM glucose at 37° C. for 45 min. After this period, groups of 5 islets were incubated in 0.6 ml KRB with the addition of 1.5 or 12.0 mM glucose, with or without the addition of peptides for 60 min. At the end of the incubation period, aliquots of the medium were collected for insulin quantitation.

[10] abbreviates: male, Sprague-Dawley, rat, in vivo.

The record followed here is patent publication US9388215B2, “Compositions and methods of using islet neogenesis peptides and analogs thereof” (SHENZHEN HIGHTIDE BIOPHARMACEUTICAL, LTD., priority 2013, dated 2016).

Regarding “Ac-IGLHDPSHGTLPAGS-NH2 [Peptide 29, Ac-IGLHDPSHGTLPAGS-NH2]”, the “stability in rat plasma” value in [1] was “exhibited good stability in rat plasma and were more stable than INGAP-PP”. Besides, in data set [2], the “stability in human plasma” value was “exhibited good stability in human plasma and were significantly more stable than INGAP-PP”. Moreover, in data set [3] (plasma, male Sprague-Dawley rat, subcutaneous, read-out: AUC(0-t)), the AUC(0-t) (in general, the area under the concentration-time curve up to a stated or last time point) came to 14400 ± 1010 ng·h/mL. Moreover, the AUC(0-inf) in data set [3] (plasma, male Sprague-Dawley rat, subcutaneous, read-out: AUC(0-∞)) came to 14400 ± 1000 ng·h/mL. For the same substance, in data set [3] (plasma, male Sprague-Dawley rat, subcutaneous, read-out: Cmax), the Cmax (commonly the highest concentration seen after dosing) was 16300 ± 2520 ng/mL. Further, in data set [4], the “time stable in isotonic phosphate buffer (pH 7.4) at 4° C.” value is “more than 90 days” and the “time stable in isotonic phosphate buffer (pH 7.4) at 25° C.” value is given as 60 days. For the same substance, the “stability in mouse plasma” value in data set [5] was “exhibited good stability in mouse plasma and were more stable than INGAP-PP”.
Turning to “Ac-IGLHDPSHGTLPAGS-OH [Peptide 12, Ac-IGLHDPSHGTLPAGS-OH]”, the AUC(0-inf) in data set [6] worked out at 12600 ng·h/mL; in data set [7] it was 8480 ng·h/mL; in [8], 5890 ng·h/mL; in data set [3] (setting [10]) it was 11200 ± 1210 ng·h/mL. For the same substance, the AUC(0-t) in [6] amounted to 12600 ng·h/mL; in data set [7] it was 8420 ng·h/mL; in [8], 5870 ng·h/mL; in data set [3] (setting [10]) it was 11100 ± 1370 ng·h/mL. Also, the Cmax in data set [6] came to 44300 ng/mL; in data set [7], 14000 ng/mL; in data set [8], 11600 ng/mL; in data set [3] (setting [10]) it was 21400 ± 1350 ng/mL. Further, the level at 0.5 h in data set [9] (Pancreas) turned out to be 877 ± 261 ng/mL; in data set [9] (Plasma), 5370 ± 981 ng/mL. Besides, the “islet neogenesis efficacy relative to INGAP-PP” value with normal C57BL/6J mice is given as “comparable or improved efficacy was achieved at a dose one tenth of INGAP-PP”. The “glucose-stimulated insulin release vs islets without peptide” value in the data set with pancreatic islets was “released significantly more insulin than those cultured without the addition of peptides”. For the same substance, the “time stable in isotonic phosphate buffer (pH 7.4) at 4° C.” value in [4] is “more than 90 days”. In [4], the “time stable in isotonic phosphate buffer (pH 7.4) at 25° C.” value is listed as 60 days.
